# Experimental data reported in patent US20250161281A1, “EMOPAMIL-BINDING PROTEIN INHIBITORS AND USES THEREOF” (BIOGEN MA INC., priority 2022, published 2025).
# Target: T1, EBP (Homo sapiens, UniProt Q15125)
# T1 construct: HEK293T cells were utilized as the source of EBP enzyme; endogenous in cells; host or cells: HEK293T
# Test: EBP Functional Assay (EBP immunoaffinity LC-MS assay)
# Type: biochemical
# Settings: HEK293T cells as source of EBP enzyme; 30 min with inhibitor, then zymosterol-d5, 37° C. for 4 h; percent conversion by LC-APCI MRM MS
# Experimental: The EBP immunoaffinity (IA) LC-MS assay measures the potency of small molecule inhibitors of EBP by quantifying their concentration-dependent changes in the enzyme's substrate and product using liquid chromatography atmospheric pressure chemical ionization multiple reaction monitoring mass spectrometry (LC-APCI MRM MS). HEK293T cells were utilized as the source of EBP enzyme. The enzyme was incubated with the small molecule inhibitors at variable concentrations for 30 min. Deuterated form of EBP substrate, zymosterol-d5 (Avanti Polar Lipids, Cat #700068P-1 mg), was then added and the plate was incubated at 37° C. for 4 h. Finally, the sterol isomers were extracted and injected to LC-APCI MRM MS. MRM transition used for the quantification for both zymosterol and dihydrolathosterol (substrate and product of EBP enzymatic reaction, respectively) is 372.3-203.2, CE 30 and DP 80 in positive ion mode. Percent conversion of the zymosterol-d5 to dehydrolathosterol-d5 was used to derive IC50 curves. Tasin-1 (1′-[(4-Methoxyphenyl)sulfonyl]-4-methyl-1,4′-bipiperidine, CAS 792927-06-1) was used as the reference small molecule inhibitor. Percent conversion versus the compound concentration data were fit to the following 4-parameter logistic model to generate IC50 curves: […]
# T1 sequence (Q15125 whole entry): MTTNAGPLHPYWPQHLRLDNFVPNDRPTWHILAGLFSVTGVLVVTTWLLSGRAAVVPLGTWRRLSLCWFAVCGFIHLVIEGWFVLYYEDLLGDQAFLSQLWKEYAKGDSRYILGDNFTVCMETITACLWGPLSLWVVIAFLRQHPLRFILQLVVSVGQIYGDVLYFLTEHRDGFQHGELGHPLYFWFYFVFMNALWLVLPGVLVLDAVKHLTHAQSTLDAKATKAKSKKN
row,IC50,Structure (SMILES)
1,< 50 nM,"Cc1nc(C(F)(F)F)ccc1S(=O)(=O)N1[C@@H]2CC[C@H]1C[C@H](N1CC3(COC3)C1)C2 (single isomer, unassigned) [Example 22]"
2,50 to 150 nM,"O=S(=O)(c1ccc(OC(F)F)cc1)N1[C@@H]2CC[C@H]1C[C@@H](NC[C@H]1C[C@@H](O)C1)C2 (single isomer, unassigned) [Example 64]"
3,150 to 2000 nM,"Cc1nn(C)c2ncc(S(=O)(=O)N3[C@@H]4CC[C@H]3C[C@H](N3CCC(C)CC3)C4)cc12 [Example 45, 1,3-Dimethyl-5-(((1R,3s,5S)-3-(4-methylpiperidin-1-yl)-8-azabicyclo[3.2.1]octan-8-yl)sulfonyl)-1H-pyrazolo[3,4-b]pyridine]"
4,< 50 nM,"Cc1noc(C)c1S(=O)(=O)N1[C@@H]2CC[C@H]1C[C@H](CN1CCOCC1)C2 [Example 38, 4-(((1R,3s,5S)-8-((3,5-Dimethylisoxazol-4-yl)sulfonyl)-8-azabicyclo[3.2.1]octan-3-yl)methyl)morpholine]"
5,50 to 150 nM,"CC(C)(O)CN[C@H]1C[C@H]2CC[C@@H](C1)N2S(=O)(=O)c1ccc(OC(F)F)cc1 [Example 77, 1-(((1R,3r,5S)-8-((4-(Difluoromethoxy)phenyl)sulfonyl)-8-azabicyclo[3.2.1]octan-3-yl)amino)-2-methylpropan-2-ol]"
6,150 to 2000 nM,"O=S(=O)(c1ccc(OC(F)F)cc1)N1[C@@H]2CC[C@H]1C[C@H](NC[C@H]1C[C@@H](O)C1)C2 (single isomer, unassigned) [Example 63]"
7,150 to 2000 nM,"Cc1cnc(S(=O)(=O)N2[C@@H]3CC[C@H]2C[C@H](N2CCC(C)CC2)C3)c(C)c1 [Example 46, (1R,3s,5S)-8-((3,5-Dimethylpyridin-2-yl)sulfonyl)-3-(4-methylpiperidin-1-yl)-8-azabicyclo[3.2.1]octane]"
8,< 50 nM,"CC1CCN([C@@H]2C[C@H]3CC[C@@H](C2)N3S(=O)(=O)c2cc(-c3ccccc3)n[nH]2)CC1 [Example 10, (1R,3s,5S)-3-(4-Methylpiperidin-1-yl)-8-((3-phenyl-1H-pyrazol-5-yl)sulfonyl)-8-azabicyclo[3.2.1]octane]"
9,50 to 150 nM,"O=S(=O)(c1ccc(OC(F)F)cc1)N1C2CCC1CC(NCC1CC(O)C1)C2 (single isomer, unassigned) [Example 62]"
10,< 50 nM,"CC12CC(NC3CC4CCC(C3)N4S(=O)(=O)c3ccc(OC(F)F)cc3)(CO1)C2 (stereo not drawn) [Example 30, 8-((4-(Difluoromethoxy)phenyl)sulfonyl)-N-(1-methyl-2-oxabicyclo[2.1.1]hexan-4-yl)-8-azabicyclo[3.2.1]octan-3-amine]"
11,< 50 nM,"CC1(CNC2C[C@H]3CC[C@@H](C2)N3S(=O)(=O)c2ccc(OC(F)F)cc2)COC1 (mixture of isomers) [Example 15, 8-((4-(Difluoromethoxy)phenyl)sulfonyl)-N-((3-methyloxetan-3-yl)methyl)-8-azabicyclo[3.2.1]octan-3-amine]"
12,< 50 nM,"O=S(=O)(c1ccc(OC(F)F)cc1)N1C2CCC1CC(NC1CCC1O)C2 (stereo not drawn) [Example 14, 2-((8-((4-(Difluoromethoxy)phenyl)sulfonyl)-8-azabicyclo[3.2.1]octan-3-yl)amino)cyclobutan-1-ol]"
13,< 50 nM,"Cc1cc(S(=O)(=O)N2[C@@H]3CC[C@H]2C[C@@H](CN2CCOCC2)C3)n(C)n1 [Example 37, 4-(((1R,3r,5S)-8-((1,3-Dimethyl-1H-pyrazol-5-yl)sulfonyl)-8-azabicyclo[3.2.1]octan-3-yl)methyl)morpholine]"
14,< 50 nM,"CC1CCN([C@@H]2C[C@H]3CC[C@@H](C2)N3S(=O)(=O)c2ccc3c(c2)CC(C)(C)C(=O)N3)CC1 [Example 5, 3,3-Dimethyl-6-(((1R,3s,5S)-3-(4-methylpiperidin-1-yl)-8-azabicyclo[3.2.1]octan-8-yl)sulfonyl)-3,4-dihydroquinolin-2(1H)-one]"
15,150 to 2000 nM,"CN(C1CCOCC1)[C@@H]1C[C@H]2CC[C@@H](C1)N2S(=O)(=O)c1ccc(OC(F)F)cc1 [Example 66, (1R,3s,5S)-8-((4-(difluoromethoxy)phenyl)sulfonyl)-N-methyl-N-(tetrahydro-2H-pyran-4-yl)-8-azabicyclo[3.2.1]octan-3-amine]"
16,150 to 2000 nM,"O=S(=O)(c1ccc(OC(F)F)cc1)N1C2CCC1CC(NC[C@H]1C[C@H]1CO)C2 (mixture of isomers) [Example 56, rac-((1R,2S)-2-(((8-((4-(Difluoromethoxy)phenyl)sulfonyl)-8-azabicyclo[3.2.1]octan-3-yl)amino)methyl)cyclopropyl)methanol]"
17,< 50 nM,"O=S(=O)(c1ccc(OC(F)F)cc1)N1[C@@H]2CC[C@H]1C[C@@H](NCC1(O)CCOCC1)C2 [Example 17, 4-((((1R,3r,5S)-8-((4-(Difluoromethoxy)phenyl)sulfonyl)-8-azabicyclo[3.2.1]octan-3-yl)amino)methyl)tetrahydro-2H-pyran-4-ol]"

row,IC50,Structure (SMILES)
1,< 50 nM,"O=S(=O)(c1ccc(OC(F)F)cc1)N1[C@@H]2CC[C@H]1C[C@@H](NCC1COC1)C2 [Example 72, (1R,3r,5S)-8-((4-(Difluoromethoxy)phenyl)sulfonyl)-N-(oxetan-3-ylmethyl)-8-azabicyclo[3.2.1]octan-3-amine]"
2,< 50 nM,"O=S(=O)(c1ccc(OC(F)F)cc1)N1[C@@H]2CC[C@H]1C[C@H](CN1CCOCC1)C2 [Example 67, 4-(((1R,3s,5S)-8-((4-(Difluoromethoxy)phenyl)sulfonyl)-8-azabicyclo[3.2.1]octan-3-yl)methyl)morpholine]"
3,< 50 nM,"O=S(=O)(c1ccc(OC(F)F)cc1)N1C2CCC1CC(N1CC3CCC(C3)C1)C2 (stereo not drawn) [Example 58, 8′-((4-(Difluoromethoxy)phenyl)sulfonyl)-3,8′-diaza-3,3′-bi(bicyclo[3.2.1]octane)]"
4,150 to 2000 nM,"Cc1nc(C(F)(F)F)ccc1S(=O)(=O)N1[C@@H]2CC[C@H]1C[C@H](NC1CCOCC1)C2 [Example 75, (1R,3s,5S)-8-((2-Methyl-6-(trifluoromethyl)pyridin-3-yl)sulfonyl)-N-(tetrahydro-2H-pyran-4-yl)-8-azabicyclo[3.2.1]octan-3-amine]"
5,50 to 150 nM,"O=S(=O)(c1ccc(OC(F)F)cc1)N1C2CCC1CC(NCC1CC(O)C1)C2 (single isomer, unassigned) [Example 61]"
6,< 50 nM,"CN(C1CCOCC1)[C@H]1C[C@H]2CC[C@@H](C1)N2S(=O)(=O)c1ccc(OC(F)F)cc1 [Example 65, (1R,3r,5S)-8-((4-(difluoromethoxy)phenyl)sulfonyl)-N-methyl-N-(tetrahydro-2H-pyran-4-yl)-8-azabicyclo[3.2.1]octan-3-amine]"
7,< 50 nM,"Cc1nc(C(F)(F)F)ccc1S(=O)(=O)N1[C@@H]2CC[C@H]1C[C@H](NC1CC3(COC3)C1)C2 (single isomer, unassigned) [Example 68]"
8,< 50 nM,"CCn1nccc1S(=O)(=O)N1[C@@H]2CC[C@H]1C[C@H](N1CCC(C)CC1)C2 [Example 13, (1R,3s,5S)-8-((1-Ethyl-1H-pyrazol-5-yl)sulfonyl)-3-(4-methylpiperidin-1-yl)-8-azabicyclo[3.2.1]octane]"
9,< 50 nM,"O=S(=O)(c1ccc(OC(F)F)cc1)N1[C@@H]2CC[C@H]1C[C@@H](NCC1CCOCC1)C2 [Example 32, (1R,3r,5S)-8-((4-(Difluoromethoxy)phenyl)sulfonyl)-N-((tetrahydro-2H-pyran-4-yl)methyl)-8-azabicyclo[3.2.1]octan-3-amine]"
10,< 50 nM,"CC1CCN([C@@H]2C[C@H]3CC[C@@H](C2)N3S(=O)(=O)c2ccc(OC(F)F)cc2)CC1 [Example 21, (1R,3s,5S)-8-((4-(difluoromethoxy)phenyl)sulfonyl)-3-(4-methylpiperidin-1-yl)-8-azabicyclo[3.2.1]octane]"
11,50 to 150 nM,"COC1CCN(C2CC3CCC(C2)N3S(=O)(=O)c2ccc(OC(F)F)cc2)C1 (stereo not drawn) [Example 50, 8-((4-(Difluoromethoxy)phenyl)sulfonyl)-3-(3-methoxypyrrolidin-1-yl)-8-azabicyclo[3.2.1]octane]"
12,< 50 nM,"COCc1ccc(S(=O)(=O)N2[C@@H]3CC[C@H]2C[C@H](N2CCC(C)CC2)C3)o1 [Example 8, (1R,3s,5S)-8-((5-(Methoxymethyl)furan-2-yl)sulfonyl)-3-(4-methylpiperidin-1-yl)-8-azabicyclo[3.2.1]octane]"
13,< 50 nM,"O=S(=O)(c1c(F)cc(OC(F)F)cc1F)N1[C@@H]2CC[C@H]1C[C@H](CN1CCOCC1)C2 [Example 35, 4-(((1R,3s,5S)-8-((4-(Difluoromethoxy)-2,6-difluorophenyl)sulfonyl)-8-azabicyclo[3.2.1]octan-3-yl)methyl)morpholine]"
14,< 50 nM,"Cc1nc(C(F)(F)F)ccc1S(=O)(=O)N1[C@@H]2CC[C@H]1C[C@@H](NCC1(C)COC1)C2 (single isomer, unassigned) [Example 27]"
15,< 50 nM,"COCCC(C)NC1CC2CCC(C1)N2S(=O)(=O)c1ccc(OC(F)F)cc1 (stereo not drawn) [Example 52, 8-((4-(Difluoromethoxy)phenyl)sulfonyl)-N-(4-methoxybutan-2-yl)-8-azabicyclo[3.2.1]octan-3-amine]"
16,> 2000 nM,"O=S(=O)(c1ccc(OC(F)F)cc1)N1C2CCC1CC(NC1COC1)C2 (stereo not drawn) [Example 74, 8-((4-(Difluoromethoxy)phenyl)sulfonyl)-N-(oxetan-3-yl)-8-azabicyclo[3.2.1]octan-3-amine]"
